Test results as given in patent US7524981B2, “Phospholipid derivatives and process for the production there” (NOF Corporation, priority 2003, dated 2009).

Experiment: Salt-tolerant effect: clouding point in aqueous sodium sulfate
Format: physicochemical
Conditions: 1 mass % solution in 5 mass % aqueous solution of sodium sulfate
Protocol: Clouding point of a 1 mass % solution of tetradecaglycerol succinyl distearoylphosphatidylethanolamine obtained in Example 5, which was dissolved in 5 mass % aqueous solution of sodium sulfate, was measured. As a result of the measurement, clouding point could not be detected even when the temperature was raised to 80° C.
Clouding point was measured for monomethylpolyoxyethylenecarbamyl (molecular weight: 2000) distearoylphosphatidylethanolamine obtained in Comparative Synthesis Example 1 in the same manner as used in Example 9.

Substance | Clouding point
Monomethylpolyoxyethylenecarbamyl (Molecular Weight: 2000) Distearoylphosphatidylethanolamine | 50.0 °C
Tetradecaglycerol Succinyl Distearoylphosphatidylethanolamine [DSPE-PG(40)] | > 80 °C
